In patent publication US7981863B2, “Treatment of Parkinson's disease with PDGF” (Neuronova AB, priority 2001, dated 2011):

Legend:
Flk-1 = conditions: Calbiochem product data; cited from earlier work
[1] = test system: rat neural stem cells from the adult lateral ventricle wall; assay: Expansion of rat neural stem cell cultures, total cell counts at 7 days; type: cell-based; conditions: for block of the VEGF response / growth of neural stem cell cultures: total cell counts at 7 days; for growth of neural stem cell cultures: growth conditions (EGF and FGF-2), no recombinant VEGF, FIG. 30
Experimental: Neural stem cells were prepared according to the attached protocol. Cells were grown in serum-free medium, subcloned and used between passage 6 and 10. If not otherwise mentioned the experiments consisted of triplets for analysis and were independently repeated at least 3 times.
Basal Medium: Neurobasal medium (NB, Gibco BRL) & B27 supplement (Gibco BRL).
Growth Medium: NB, B27 supplement+20 ng/ml of FGF-2 (R&D Systems)+20 ng/ml EGF (R&D Systems)+2 μg/ml heparin (Sigma, Germany).
Cells were plated in Growth medium at 10.000 cells/ml and after 2 days switched to the experimental condition. Cells were kept under the experimental condition for 7 days.
Adult female Fischer-344 rats (3-4 months; Charles River, Germany) were killed via cervical dislocation, the brains of each rat were removed and stored at 4° C. in DPBS (PAN, Germany) with 4.5 g/L glucose (Merck, Germany) (DPBS/glu). Overlying meninges and blood vessels were removed. Ependymal zone including subependymal/subventricular zone form the lateral wall of the lateral ventricle were aseptically removed. The dissected tissue was transferred to fresh DPBS/glu, washed once, transferred to petri-dishes and dissociated mechanically into a single cell suspension. The cell suspension was washed in DPBS/glu in order to rinse off excess blood and resuspended in PPD-solution containing 0.01% Papain (Worthington Biochemicals, England), 0.1% dispase II (Boehringer, Germany), 0.01% DNase I (Worthington Biochemicals, England) and 12.4 mM MgSO4 in HBSS (PAN, Germany) without Mg^++/Ca^++ (PAA, Germany) and digested for 30 to 40 min at room temperature. The cell solution was triturated every 10 min. Dissociated cells were collected and resuspended in serum-free DMEM/F12 medium containing 2 mM L-glutamine and 0.1 g/L penicillin/streptomycin and washed three times with accurate trituration with a blue tip. Finally the single cell suspension was resuspended in Neurobasal medium (Gibco BRL, Germany) supplemented with B27 (Gibco BRL, Germany) (NB/B27), 2 mM L-glutamine (PAN, Germany), 0.1 g/L penicillin/streptomycin (PAN, Germany), 2 μg/ml heparin (Sigma, Germany), 20 ng/ml bFGF-2 (R&D Systems, Germany) and 20 ng/ml EGF (R&D Systems, Germany). Live cells were counted by trypan blue exclusion assay in a hemocytometer. Cells were seeded in T-25 culture flasks and cultures were maintained at 37° C. in an incubator with 95% air, 5% CO2. Single cells began to form spheres within 5 to 7 days of suspension culture and continued to grow in mass and number over the next weeks. Media were changed every 7 days.
The culture medium containing floating neurospheres was collected in a 15 ml centrifuge tube and centrifuged at 800 rpm. The pellet was resuspended in 200 μl of Accutase (Innovative Cell Technologies Inc., USA, distributed by PAA, Germany) and triturated about 10 times using a pipette. Then, the cell suspension was incubated at 37° C. for 10 min. Dissociated spheres were again triturated and resuspended in 800 μl of NB/B27 medium. An aliquot was counted by trypan blue exclusion assay in a hemocytometer to determine the amount of live and dead cells. 1×10^5 cells were plated in T75 culture flasks for long term passaging (10 ml of culture medium per flask) in NB/B27 medium. The cells obtained after Accutase-treatment of primary neurospheres proliferated and yielded secondary neurospheres. Secondary neurospheres were passaged 7 to 9 days after plating primary neurosphere cells. Similar to primary cultures and primary neurospheres, single cells obtained after dissociation of secondary neurospheres proliferated and yielded tertiary neurospheres. […]

[2] = test system: Neural stem cell cultures; conditions: 50 ng/ml VEGF, 100 nM PADQ or 700 nM SU1498 for 7 days
Experimental: BrdU (10 μM) was added to the culture medium 24 hrs before cells were harvested and lysed. DNA was extracted and BrdU content was determined using an anti-BrdU-ELISA. The data are presented as percent changes in optical density compared to control (Growth medium).

[3] = test system: cells from the lateral ventricle wall; conditions: after intraventricular infusion, compared to aCSF controls; FIG. 33
adult rats = conditions: four weeks after 7 days of continuous VEGF infusion into the lateral ventricle
[4] = test system: cultured, non-adherent mouse neurospheres; assay: Intracellular ATP assay, proliferation of cultured mouse neurospheres; type: cell-based; conditions: FIG. 1
Experimental: The anterior lateral wall of the lateral ventricle of 5-6 week old mice was enzymatically dissociated in 0.8 mg/ml hyaluronidase and 0.5 mg/ml trypsin in DMEM containing 4.5 mg/ml glucose and 80 units/ml DNase at 37° C. for 20 min. The cells were gently triturated and mixed with three volumes of Neurosphere medium (DMEM/F12, B27 supplement, 125 mM HEPES pH 7.4) containing 20 ng/ml EGF (unless otherwise stated), 100 units/ml penicillin and 100 μg/ml streptomycin. After passing through a 70 μm strainer, the cells were pelleted at 160×g for 5 min. The supernatant was subsequently removed and the cells resuspended in Neurosphere medium supplemented as above, plated out in culture dishes and incubated at 37° C. Neurospheres were ready to be split approximately 7 days after plating.
To split the neurospheres, cells were collected by centrifugation at 160×g for 5 min. The conditioned supernatant (conditioned medium) was removed and saved. The neurospheres were resuspended in 0.5 ml Trypsin/EDTA in HBSS (1×), incubated at 37° C. for 2 min and triturated gently to aid dissociation. Following a further 3 min incubation at 37° C. and trituration, 3 volumes of ice cold Neurosphere medium medium w/o EGF were added to stop further trypsin activity. […]
After 3 days of treatment, intracelluar ATP was measured using the ATP SL kit (Biothema) according to the manufacturer's instructions.

[5] = test system: Mouse Cultured Neural Stemcells/Progenitors; assay: GFAP and β-III Tubulin in adherent mouse neural stem cells (Western blot, immunocytochemistry); type: cell-based
Experimental: NSCs, cultured as described above, were seeded from passage 2 into DMEM/F12 supplemented with B27 into a 24-well plate (poly-D-lysine-coated) as single cells (70.000 cells/well), to which PDGF-AA was added at the concentration of 1 nM. The cells were then differentiated for 5 days changing medium plus/minus PDGF-AA every 48 hours. At day 6 the cells were harvested and Western blots were performed as described elsewhere (Patrone C et al (1999) Proc Natl Acad Sci USA. 96(19):10905-10). A neuronal marker antibody against β-III Tubulin, 1:5000 (BioSite), or a glial marker antibody against glial fibrillary acidic protein (GFAP) 1:5000, (DAKO) was used to measure phenotypic fates.
In another set of experiments the effects of PDGF-AA were studied with immunocytochemical methods in fixed adherently cultured neural stem cells. […] In other experiments with PDGF-AA, analyzed by immunocytochemistry, it was shown that the factor caused a general shift from a stem cell phenotype to a progenitor phenotype in that cultures contained both of the markers, GFAP and β-III Tubulin. […] In concurrent experiments the effect of PDGF-BB was also studied.

Mouse Neural Stem Cells = assay: Neuronal differentiation (β-III Tubulin) of adult mouse neural stem cells; type: cell-based; conditions: 1 nM, 7 days
Experimental: Adult mouse neurosperes were dissociated with trypsin (Gibco) into single cells and transferred to poly-D-Lysine plates (BD) in the above culture medium, without growth factors, supplemented with 1% Fetal Calf Serum (Gibco). The cells were incubated over night to adhere to the plate. The medium was changed to culture medium, without growth factors, supplemented with 1 nM PDGF-AA or PDFG-BB (both from R&D Systems). The medium with new substance added every second day. The cells were incubated for a total of 7 days.
The cells were washed two times with PBS (Gibco) and fixed for 15 min RT with 4% Formaldehyde (Sigma) and permeabilized 20 min RT in 0.1% Triton X-100 (Sigma) in PBS. After fixation and permeabilization the cells were labelled with mouse monoclonal anti-β-III Tubulin (1:500 Promega). Primary antibody was visualized with anti mouse Texas-Red (1:100 Vector Laboratories). All antibodies were diluted in PBS with 0.1% Triton X-100.
The cells were washed twice with PBS (Gibco) and lysed with 200 ul lysis buffer/well. The lysis buffer contained PBS, 0.1% Triton X-100, 1 mM EDTA and 1 tab1. Protease inhibitor cocktail (Roche). The samples were run on a 4-12% Bis-Tris gel (Novex) under reduced conditions with MOPS buffer (Novex) and blotted onto a Hybond ECL nitrocellulose membrane (Amersham Biotech). Blocked in 5% ECL-Block (Amersham Biotech) in PBS+0.1% Tween 20 (Sigma). The membranes were labelled with mouse monoclonal anti-β-III Tubulin (1:5000 Promega). The primary antibody was detected using a secondary antibody anti-mouse-HRP (1:10000 Amersham Biotech) and ECL Plus+ Western Blot Detection Kit (Amersham Biotech). All antibodies were diluted in PBS with 0.1% Triton X-100, 1% ECL Block. The signal were then captured on ECL Hyper Film (Amersham Biotech)

[6] = basal medium, VEGF 50 ng/ml, PADQ 100 nM, SU1498 700 nM
[7] = growth conditions (including EGF and FGF-2)
[8] = 1 nM, 6 days, adherent culture, compared to treatment with EGF
[9] = fixed adherently cultured neural stem cells

## CC(C)c1cc(/C=C(\C#N)C(=O)NCCCc2ccccc2)cc(C(C)C)c1O [SU1498, (E)-3-(3,5-Diisopropyl-4-hydroxyphenyl)-2-[(3-phenyl-n-propyl)amino-carbonyl]acrylonitrile]
Flk-1
  IC50: 700 nM
[1]; [6]
  block of the VEGF response: able to block the VEGF response
[1]
  growth of neural stem cell cultures: significantly reduce the growth
[1]; [7]
  block of the VEGF response: able to block the VEGF response

## VEGF
[2]
  BrdU incorporation (proliferation ELISA): more BrdU
  DNA strand breaks (apoptosis ELISA): reduced the amount of DNA strand breaks
[3]
  number of spheres formed in culture from lateral ventricle wall cells: significantly increased
Adult rats
  BrdU labeled cells in the dentate gyrus: marked increase
[1]; different concentrations, 7 days, FIG. 24, FIG. 25
  stimulation of proliferation of neural stem cell cultures: dose-dependent stimulatory effect
[1]; growth medium, 7 days, FIG. 27
  ED50 (expansion of neural stem cell cultures): ~0.01 µg/mL
  concentration of maximal stimulation: 50 ng/mL

## PDGF-AA: human recombinant PDGF-AA, platelet derived growth factor A-chain homodimer
[4]; PDGF-AA added together with PDGF-BB, B27 medium
  effect on the proliferative effect of PDGF-BB when added together: did not alter the proliferative effect of PDGF-BB
[4]; growth media supplemented with B27, 1 nM-0.0005 nM, 3 days of treatment
  proliferative effect (intracellular ATP): weaker compared to BB
[5]; [8]
  GFAP (Western blot): downregulation of GFAP
  β-III Tubulin neuronal marker (Western blot): significant increase
[5]; [9]
  GFAP (immunocytochemistry): down regulation of GFAP
  β-III Tubulin (immunocytochemistry): upregulation of β-III Tubulin
Mouse Neural Stem Cells; compared to the control, FIG. 5
  number of β-III Tubulin positive cells in culture: significantly increase the number of β-III Tubulin positive cells
Mouse Neural Stem Cells; compared with the control, FIG. 6
  levels of β-III Tubulin protein (Western blot): significantly increased levels of β-III Tubulin protein
Mouse Neural Stem Cells; FIG. 5 and FIG. 6
  neuronal differentiation of cultured mouse neural stem cells/progenitors: trigger neuronal differentiation

## COc1cc2ncnc(Nc3ccc(Cl)cc3F)c2cc1OC [PADQ]
Flk-1
  IC50: 100 nM
[1]; [6]
  block of the VEGF response: able to block the VEGF response
[1]
  growth of neural stem cell cultures: significantly reduce the growth
[1]; [7]
  block of the VEGF response: able to block the VEGF response
